Measurements reported in patent US7419999B2, “Gamma lactams as prostaglandin agonists and use thereof” (Applied Research Systems ARS Holding N.V., priority 2002, dated 2008).
Where two headings read alike, the source gives them in different places.

Columns and labels:
[1] = biological target: h-EP2 (Homo sapiens, UniProt P43116); experiment: Prostaglandin EP2 receptor binding assay (3H-PGE2 SPA)
Method: Compounds of the invention were tested in an EP2 receptor binding assay of the following protocol. As referred to herein, the term an “EP2 receptor binding assay” designates the following protocol.

[2] = biological target: T1, h-EP4 (Homo sapiens, UniProt P35408); experiment: EP4 receptor binding assay (3H-PGE2 SPA)
Method: Compounds of the invention were tested in an EP4 receptor binding assay of the following protocol.

[3] = test system: mature 10-week CD-1 mice; experiment: In vivo ovulation assay (mature mouse ovulation induction model); details: for ED50: Mus musculus; for average of ova obtained: 5IU PMSG priming
Method: Ovulation triggering activity of compounds of the invention are tested in a mature mouse ovulation induction model.
Mature 10-week-old CD-mice are used. […] A test compound (based on solubility) is pre-dissolved in ethanol, DMSO or other reagents. Test compound is then diluted with saline or other diluents such as PBS or NP3S (5% N-methyl-pyrrolidinone/30% PEG-400/25% PEG-200/20% Propylene Glycol in saline). PMSG serves to stimulate follicule growth and maturation.
Uterus, oviducts and ovaries were collected and placed in pre-labeled dishes containing phosphate buffered saline (PBS). The collected tissues were transferred to the laboratory and intact oviduct carefully dissected out from uterus and ovary under the dissection microscope. The dissected oviducts were placed on the glass microscopic slide and covered with another slide. Two slides were taped on two edges. The numbers of ovulated ova in the oviducts were counted using upright microscope with 4× objective and recorded.
For evaluating the oral activity of this compound, two experiments were conducted, the first experiment was conducted with non-fasted animals and the second experiment was conducted in 24 h fasted animals (water provided). The compounds of the invention, according to their solubility are pre-dissolved in ethanol, DMSO or other reagents. The compounds of the invention are then diluted with saline or other diluents such as PBS or NP3S before oral administration.

[4] = biological target: T1, h-EP4; experiment: EP4 cAMP assay in HEK293-EBNA cells transfected with pCEP4-hEP4; assay type: cell-based
Method: Compounds of the invention were tested in a total cAMP assay as follows. […] After overnight incubation, the medium was removed from each well and replaced with 45 μl of assay medium consisted of phenol red free D-MEM/F-12, 0.1% BSA (GibcoBRL) and 0.1 mM3-isobutyl-1-methyl-xanthine (Sigma). […] Total cAMP (intra- and extra-cellular) was measured by using a cAMP-screen ELISA System (Tropix, #CS1000).

[5] = test system: TNFα; experiment: In vivo inhibition of LPS-induced TNFa release in mice; details: oral; Inhibitory Dose at 50% of the maximum effect
Method: The anti-inflammatory activity of compounds of the invention may be assessed after a LPS challenge using the following protocol:
Eight weeks old C3H/HEN mice (IFFA-CREDO, L'arbresle, France) receive an oral treatment with compounds of the invention 6 different doses (0.001, 0.01, 0.1, 1 or 3 and 10 mg/kg in 0.5% CMC/0.25% tween-20). Six mice are used by group. Fifteen minutes later, endotoxins (O111:B4 Sigma, 0.3 mg/kg) are intraperitoneally injected. Heparinized whole blood is collected by decapitation. TNFα level is determined in plasma by ELISA (R & D Systems, Abdingdon, UK). Control animals receive 0.5% CMC/0.25% tween-20 (10 ml/kg) as vehicle. Data obtained from experiments are expressed as the mean±SEM and analysed using one-way analysis of variance (ANOVA) followed by Dunnett's t-test.

[6] = test system: methacholine-induced bronchoconstriction; experiment: In vivo inhibition of guinea pig methacholine-induced bronchoconstriction; details: for ED50: Cavia porcellus
Method: Guinea pig pulmonary-cholinergic in vivo model is generally used to test the materials for the treatments of asthma in human (Fleisch at al. 1985, K. Pharmacol. Exp. Ther. 233: 148-157). Compounds of the invention are tested in this model.
Groups of 3 Duncan Hartley derived male or female guinea pigs weighing 250±50 g are anesthetized with pentobarbital sodium (50 mg/kg i.p., plus an additional 15 mg/kg i.p. if required) and succinylcholine chloride (2 mg/animal i.p.) is subsequently administered to prevent spontaneous respiration. Body temperature is maintained at 37° to 38° C.
The trachea is cannulated and the guinea pig is ventilated with a Harvard rodent respirator in a closed system. Tracheal pressure is recorded through a side-arm of the cannula connected to a P23ID Statham transducer. Respiratory rate is set at 50 strokes/minute with a stroke volume (approximately 1 ml/100 g) sufficient to produce a baseline tracheal pressure of 6 cm H2O. Mean arterial pressure (BP) is monitored from a cannulated carotid artery, and heart-rate (HR) is obtained from chest electrodes arranged for lead II. The jugular vein is cannulated for i.v. vehicle or drug administration in a volume of 1 ml/kg.
Cholinergic-induced bronchoconstrictor responses, reflected as increases in tracheal pressure (cm H2O), are elicited by administration of methacholine hydrochloride (10 μg/kg base weight i.v.). In vehicle-treated control animals, methacholine-induced bronchoconstriction ranges from 70 to 90 percent of its own maximum response (about 40 to 65 percent of maximum possible bronchoconstriction obtained by tracheal occlusion).
Compounds of the invention are also tested via intratracheal (IT) route of administration. In this other experiment, compound of the invention, reference compound or vehicle is administered IT 10 (5 min for experiment 1 and 2) minutes before methacholine chloride (10 μg/kg i.v.) induced bronchoconstriction. Tracheal pressure (ITP), blood pressure and heart rate are measured immediately as indicated in the material and methods sections.
MED (medium effective dose) is measured.
Compounds of the invention are administered i.v. (10 mg/kg) 5 minutes before subministration of the methacoline hydrochloride challenge in 3 guinea pigs. A 50 percent or more (≧50) inhibition of the induced bronchoconstriction relative to vehicle treated control animals is considered significant.

[7] = sc, Table 3, s.c., read-out: Ovulation Induction (ED50, mg/kg) s.c.
[8] = sc, read-out: calculated ED50, ovulation induction
[9] = read-out: Ki measured as described in Example 83 (EP4)
[10] = po, Table 3, p.o., read-out: Ovulation Induction (ED50, mg/kg) p.o.
[11] = Table 2, total cAMP, read-out: h-EP4 EC50

T1 sequence (P35408 whole entry): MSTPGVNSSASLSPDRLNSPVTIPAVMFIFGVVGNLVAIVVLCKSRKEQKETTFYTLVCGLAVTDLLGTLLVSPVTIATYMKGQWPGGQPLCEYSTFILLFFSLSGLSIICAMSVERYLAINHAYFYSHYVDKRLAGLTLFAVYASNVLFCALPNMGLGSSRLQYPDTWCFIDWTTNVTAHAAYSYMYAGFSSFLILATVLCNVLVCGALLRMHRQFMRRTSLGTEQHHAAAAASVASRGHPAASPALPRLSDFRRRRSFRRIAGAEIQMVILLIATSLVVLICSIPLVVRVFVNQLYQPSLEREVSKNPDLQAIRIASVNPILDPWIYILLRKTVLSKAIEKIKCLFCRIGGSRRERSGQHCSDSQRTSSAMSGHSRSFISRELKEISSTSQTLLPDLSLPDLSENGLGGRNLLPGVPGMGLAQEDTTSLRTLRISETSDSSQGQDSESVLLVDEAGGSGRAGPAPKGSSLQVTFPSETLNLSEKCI
Chain of h-EP2 (P43116 whole entry): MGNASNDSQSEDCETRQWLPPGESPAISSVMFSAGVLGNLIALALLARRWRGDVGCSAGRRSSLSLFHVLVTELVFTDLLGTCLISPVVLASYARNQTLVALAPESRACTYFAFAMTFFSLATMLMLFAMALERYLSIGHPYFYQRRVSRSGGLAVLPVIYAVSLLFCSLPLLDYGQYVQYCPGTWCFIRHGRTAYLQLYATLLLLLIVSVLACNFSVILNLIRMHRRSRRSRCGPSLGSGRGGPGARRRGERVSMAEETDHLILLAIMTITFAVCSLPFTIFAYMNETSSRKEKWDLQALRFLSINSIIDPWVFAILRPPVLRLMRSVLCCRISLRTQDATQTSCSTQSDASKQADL

Ki ([1]; Table 1, read-out: h-EP2 Ki) [nM]	Ki ([2]; Table 1, read-out: h-EP4 Ki) [nM]	Ki ([2]; Table 2, read-out: h-EP4 Ki) [nM]	SMILES	ED50 [3, 7] [mg/kg]	ED50 [3, 10] [mg/kg]	other results
1930	25	–	O=C(O)c1ccc(CCN2C(=O)CC[C@@H]2/C=C/[C@H](O)C2(c3ccccc3)CC2)cc1 [Example 8, 4-(2-{(2R)-2-[(1E,3S)-3-hydroxy-3-(1-phenylcyclopropyl)prop-1-enyl]-5-oxopyrrolidin-1-yl}ethyl)benzoic acid]	–	–	–
220	16	2	O=C(O)c1ccc(CCN2C(=O)CC[C@@H]2/C=C/[C@@H](O)C2(c3ccccc3)CC2)cc1 [Example 7, 4-(2-{(2R)-2-[(1E,3R)-3-hydroxy-3-(1-phenylcyclopropyl)prop-1-enyl]-5 oxopyrrolidin-1-yl}ethyl)benzoic acid]	0.73	–	–
–	–	1	CCCCCC[C@H](O)/C=C/[C@H]1CCC(=O)N1CCc1ccc(C(=O)O)cc1 [Example 10, 4-(2-{(2R)-2-[(1E,3S)-3-hydroxynon-1-enyl]-5-oxopyrrolidin-1-yl}ethyl) benzoic acid]	–	–	–
–	–	7740	CS(=O)(=O)NC(=O)CCC/C=C\C[C@H]1C(=O)C[C@@H](O)[C@@H]1/C=C/[C@@H](O)COc1ccccc1 [Sulprostone, reference compound]	> 27	–	–
–	–	–	CCCCC[C@H](O)/C=C/[C@H]1[C@H](O)CC(=O)[C@@H]1C/C=C\CCCC(=O)O [PGE2, reference compound]	–	–	average of ova obtained ([3]; Group 3: 13.5 mg/kg): an average of 19.4 ova were obtained for Group 3;
–	–	–	O=C(O)c1ccc(CCN2C(=O)CCN2CCC(O)Cc2cccc(C(F)(F)F)c2)cc1 (centres unmarked) [4-[2-(2-{3-hydroxy-4-[3-(trifluoromethyl)phenyl]butyl}-5-oxopyrazolidin-1-yl)ethyl]benzoic acid, reference compound]	–	–	ED50 [3, 8]: 5 mg/kg; Ki [2, 9]: 23 nM; EC50 ([4]; read-out: EC50 measured as described in Example 84 (EP4)): 0.2 nM
2100	20	–	CCCCC(C)(C)C(O)/C=C/[C@H]1CCC(=O)N1CCc1ccc(C(=O)O)cc1 (stereo in doubt) [Example 6, 4-(2-{2-[(1E,3R)-3-hydroxy-4,4-dimethyloct-1-enyl]-5-oxopyrrolidin-1-yl}ethyl)benzoic acid]	–	–	–
–	–	–	O=C(O)c1ccc(CCN2C(=O)CCN2CCC(O)Cc2cccc(I)c2)cc1 (centres unmarked) [4-(2-{2-.[4-(3-iodophenyl)-3-hydroxybutyl]-5-oxopyrazolidin-1-yl}ethyl)benzoic acid, reference compound]	–	–	release of ova ([3]; orally, single dose of 20 mg/kg): 10±3 ova; Ki ([1]; read-out: Ki on EP2): 4450 nM; Ki [2, 9]: 14 nM
1240	0.732	–	CCCCC(C)(C)C(O)/C=C/[C@H]1CCC(=O)N1CCc1ccc(C(=O)O)cc1 (stereo in doubt) [Example 5, 4-(2-{2-[(1E,3S)-3-hydroxy-4,4-dimethyloct-1-enyl]-5-oxopyrrolidin-1-yl}ethyl)benzoic acid]	3	18	EC50 [4, 11]: 0.014 nM
–	–	> 10000	CCCC1([C@H](O)C/C=C/[C@H]2[C@H](O)CC(=O)[C@@H]2CCCCCCC(=O)OC)CCC1 [Butaprost, reference compound]	> 30	–	–
–	–	0.5	O=C(O)c1ccc(CCN2C(=O)CC[C@@H]2/C=C/[C@@H](O)Cc2cccc(Cl)c2)cc1 [Example 9, 4-(2-{(2R)-2-[(1E,3S)-3-hydroxy-4-(3-chlorophenyl)but-1-enyl]-5-oxopyrrolidin-1-yl}ethyl)benzoic acid]	–	1	EC50 [4, 11]: 30 nM
–	–	0.05	O=C(O)c1ccc(CCN2C(=O)CC[C@@H]2/C=C/[C@@H](O)Cc2ccccc2)cc1 [Example 31, 4-[2-{(2R)-2-[(1E,3S)-3-hydroxy-4-phenylbut-1-enyl]-5-oxopyrrolidin-1-yl}ethyl)benzoic acid]	0.32	1	ID50 [5]: 0.003 mg/kg
120	2	–	CCCCC[C@H](O)/C=C/[C@H]1CCC(=O)N1CCc1ccc(C(=O)O)cc1 [Example 1, 4-(2-{(2R)-2-[(1E,3S)-3-hydroxyoct-1-enyl]-5-oxopyrrolidin-1-yl}ethyl) benzoic acid]	3.8	22	average of ova obtained ([3]; Group 4: 10 mg/kg s.c.): an average of 25 ova were obtained for Group 4;; average of ova obtained ([3]; Group 5: 30 mg/kg s.c.): an average of 22.4 ova were obtained for Group 5;; ED50 [3, 8]: 3.9 mg/kg; ED50 ([3]; oral, 24 h fasted animals, read-out: calculated ED50, ovulation induction): 21.1 mg/kg; ED50 ([3]; oral, non-fasted animals, read-out: calculated ED50, ovulation induction): 22 mg/kg; activity in the mice ovulation induction model ([3]; subcutaneous (sc), oral (po) and intravenous (iv) routes): active; ED50 ([6]; iv, read-out: calculated effective dose (ED50), bronchoconstriction): ~0.0017 mg/kg; ED50 ([6]; IT route of administration, read-out: calculated ED50, bronchoconstriction): 0.0024 mg/kg; calculated ED50, bronchoconstriction ([6]; IT route of administration): 0.72 μg/GP; effect on blood pressure and heart beat ([6]; i.v., 3 10^−5 up to 0.3 mg/kg): not altering neither blood pressure nor heart beat

SMILES	Ki ([1]; Table 1, read-out: h-EP2 Ki) [nM]	Ki ([2]; Table 1, read-out: h-EP4 Ki) [nM]	Ki ([2]; Table 2, read-out: h-EP4 Ki) [nM]	ED50 [3, 7] [mg/kg]	ED50 [3, 10] [mg/kg]	other results
CCCCC1([C@H](O)/C=C/[C@H]2CCC(=O)N2CCc2ccc(C(=O)O)cc2)CCC1 [Example 45, 4-(2-{(2R)-2-[(1E,3R)-3-(1-butylcyclobutyl)-3-hydroxyprop-1-enyl]-5-oxopyrrolidin-1-yl}ethyl)benzoic acid]	–	–	2	–	1	ID50 [5]: 0.010 mg/kg; EC50 [4, 11]: 0.3 nM
